pEC50: −log10 of the molar value. Where two headings read alike, the source gives them in different places. Values belong to the molecule of their own block, whether it stands above or below them.
Experiments:
[1] = biological target: T1, recombinant human GPR 119 receptor (Homo sapiens, UniProt Q8TDV5); experiment: cAMP assay in stable cell line expressing recombinant human GPR 119 receptor; assay type: cell-based; conditions: intracellular cAMP
T1 construct: expressed in transfected cells
T1 sequence (Q8TDV5 1-335): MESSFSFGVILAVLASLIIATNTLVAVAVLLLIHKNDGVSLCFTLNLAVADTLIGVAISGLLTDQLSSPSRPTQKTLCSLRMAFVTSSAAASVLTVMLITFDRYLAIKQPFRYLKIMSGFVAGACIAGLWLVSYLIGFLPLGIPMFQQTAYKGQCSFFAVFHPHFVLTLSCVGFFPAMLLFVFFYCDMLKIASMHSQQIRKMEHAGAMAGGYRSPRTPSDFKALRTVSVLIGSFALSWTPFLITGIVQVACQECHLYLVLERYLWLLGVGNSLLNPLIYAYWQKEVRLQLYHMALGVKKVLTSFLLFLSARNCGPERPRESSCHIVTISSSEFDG
Source text: cAMP assay: A stable cell line expressing recombinant human GPR 119 receptor was established and used to investigate the efficacy of the compounds of the invention based on the intracellular levels of cyclic AMP (cAMP) using commercially available cAMP kits. Compounds of the invention produced a concentration dependent increase in cAMP level and EC50 values of representative compounds were provided in table 1.

C57/BL6 mice = experiment: Oral glucose tolerance test (OGTT) in C57/BL6 mice; assay type: in vivo, mouse; conditions: serum glucose AUC, single oral dose, glucose load 3 gm/kg
Method: Oral Glucose Tolerance Tests (OGTT) in C57/BL6 Mice:
C57/BL6 mice of 6-8 week age are used for this experiment. Animals are grouped based on non-fasting serum glucose levels and kept on fasting for overnight (day before OGTT). On the experiment day, […], 30 min post dosing animals are bled for basal glucose level estimation and at the same time glucose load (3 gm/kg) will be administered per orally. Blood is collected at time points corresponding to 20, 40, 60 and 120 min after glucose load administration. Serum is separated for determination of glucose levels and change in area under curve for glucose is calculated and provided in table 4 as % reduction in AUC.

Sprague Dawley rats = experiment: Feed intake in Sprague Dawley rats; assay type: in vivo, rat; conditions: cumulative feed intake vs vehicle; for inhibition in vivo at 25 mg/kg: Rattus norvegicus, ip
Source text: In Vivo Efficacy Studies: Feed Intake in Sprague Dawley Rats:
Sprague Dawley rats of 6-8 week age are used for this experiment they are kept for acclimatization in reversed light/dark cycle for 15 days. Animals will have free access to a standard chow diet and water during acclimatization period. After 15 days reversed light/dark cycle acclimatization animals are trained for fasting induced feed intake for 5 days till they show consistent feed intake. Grouping was done based on the monitored feed intake during the training days. On treatment day each group of animals are dosed with test compound or vehicle by appropriate routes of administration (orally or intraperitoneally). Exactly 30 min. after treatment, measured amount of standard chow diet is provided and recorded as O-min feed offered. Then subsequently 2, 4, 6 and 24 hour after O-min, feed intake is measured and the cumulative feed intakes are calculated. The change in cumulative feed intake as compared to vehicle treated control at each time point is calculated for test compound.

[2] = intraperitoneal, 25 mg/kg, 2 hour, read-out: % reduction in food in take, 2 hour
[3] = intraperitoneal, 25 mg/kg, 4 hour, read-out: % reduction in food in take, 4 hour
[4] = intraperitoneal, 25 mg/kg, 6 hour, read-out: % reduction in food in take, 6 hour
[5] = intraperitoneal, 25 mg/kg, 24 hour, read-out: % reduction in food in take, 24 hour
[6] = intraperitoneal, 25 mg/kg, 2 hour
[7] = intraperitoneal, 25 mg/kg, 4 hour
[8] = intraperitoneal, 25 mg/kg, 6 hour
[9] = intraperitoneal, 25 mg/kg, 24 hour

pEC50 [1]: 7.51
SMILES: CC(C)c1noc(C2CCN(c3ncnc(Oc4ccc([C@H]5CO[S@@](=O)OC5)cc4)c3[N+](=O)[O-])CC2)n1 [Example 1, cis-5-(4-((6-(4-(3-isopropyl-1,2,4-oxadiazol-5-yl)piperidin-1-yl)-5-nitropyrimidin-4-yl)oxy)phenyl)-1,3,2-dioxathiane 2-oxide]
inhibition in vivo at 50 mg/kg (C57/BL6 mice; Mus musculus, 2 h, read-out: % reduction in AUC at 50 mg/kg): 23%
inhibition in vivo at 25 mg/kg (Sprague Dawley rats; [2]): 45%
inhibition in vivo at 25 mg/kg (Sprague Dawley rats; [3]): 24%
inhibition in vivo at 25 mg/kg (Sprague Dawley rats; [4]): 8.5%
inhibition in vivo at 25 mg/kg (Sprague Dawley rats; [5]): 4%

SMILES: Cc1c(Oc2ccc([C@H]3CO[S@@](=O)OC3)cc2)ncnc1OC1CCN(c2ncccn2)CC1 [Example 5, cis-5-(4-((5-methyl-6-((1-(pyrimidin-2-yl)piperidin-4-yl)oxy)pyrimidin-4-yl)oxy)phenyl)-1,3,2-dioxathiane 2-oxide]
% reduction in food in take, 2 hour (Sprague Dawley rats; [6]): 35%
% reduction in food in take, 4 hour (Sprague Dawley rats; [7]): 17%
% reduction in food in take, 6 hour (Sprague Dawley rats; [8]): 21%
% reduction in food in take, 24 hour (Sprague Dawley rats; [9]): 8%

pEC50 [1]: 8.38
SMILES: Cc1c(Oc2ccc([C@H]3CO[S@@](=O)OC3)cc2)ncnc1OC1CCN(C(=O)OC(C)(C)C)CC1 [Example 15, cis-tert-butyl 4-((5-methyl-6-(4-(2-oxido-1,3,2-dioxathian-5-yl)phenoxy)pyrimidin-4-yl)oxy)piperidine-1-carboxylate]
inhibition in vivo at 25 mg/kg (Sprague Dawley rats; [2]): 47%
inhibition in vivo at 25 mg/kg (Sprague Dawley rats; [3]): 31%
inhibition in vivo at 25 mg/kg (Sprague Dawley rats; [4]): 28%
inhibition in vivo at 25 mg/kg (Sprague Dawley rats; [5]): 19%

SMILES: CC(C)(C)OC(=O)N1CCC(c2nc(COc3ccc([C@H]4CO[S@@](=O)OC4)cc3)cs2)CC1 [Example 17, cis-tert-butyl 4-(4-((4-(2-oxido-1,3,2-dioxathian-5-yl)phenoxy)methyl)thiazol-2-yl)piperidine-1-carboxylate]
% reduction in AUC at 50 mg/kg (C57/BL6 mice): 34%
% reduction in food in take, 2 hour (Sprague Dawley rats; [6]): 34%
% reduction in food in take, 4 hour (Sprague Dawley rats; [7]): 34%
% reduction in food in take, 6 hour (Sprague Dawley rats; [8]): 24%
% reduction in food in take, 24 hour (Sprague Dawley rats; [9]): 13%

SMILES: CC(C)(C)OC(=O)N1CCC(c2nc(COc3ccc(C4COS(=O)OC4)cc3)cs2)CC1 (stereo not drawn) [Example 18, trans-tert-butyl 4-(4-((4-(2-oxido-1,3,2-dioxathian-5-yl)phenoxy)methyl)thiazol-2-yl)piperidine-1-carboxylate]
% reduction in AUC at 50 mg/kg (C57/BL6 mice): 11%

SMILES: Cc1c(OCCCC2CCN(C(=O)OC(C)(C)C)CC2)ncnc1Oc1ccc(C2COS(=O)OC2)cc1 (stereo not drawn) [Example 20, cis-tert-butyl 4-(3-((5-methyl-6-(4-(2-oxido-1,3,2-dioxathian-5-yl)phenoxy)pyrimidin-4-yl)oxy)propyl)piperidine-1-carboxylate]
% reduction in AUC at 50 mg/kg (C57/BL6 mice): 25%

SMILES: Cc1c(Oc2ccc(C[C@H]3CO[S@@](=O)OC3)cc2)ncnc1OC1CCN(c2nc(C(C)C)no2)CC1 [Example 29, cis-5-(4-((6-((1-(3-isopropyl-1,2,4-oxadiazol-5-yl)piperidin-4-yl)oxy)-5-methylpyrimidin-4-yl)oxy)benzyl)-1,3,2-dioxathiane 2-oxide]
% reduction in food in take, 2 hour (Sprague Dawley rats; [6]): 50%
% reduction in food in take, 4 hour (Sprague Dawley rats; [7]): 24%
% reduction in food in take, 6 hour (Sprague Dawley rats; [8]): 5%
% reduction in food in take, 24 hour (Sprague Dawley rats; [9]): 4%

SMILES: Cc1c(Oc2ccc(C[C@H]3CO[S@](=O)OC3)cc2)ncnc1OC1CCN(c2nc(C(C)C)no2)CC1 [Example 30, trans-5-(4-((6-((1-(3-isopropyl-1,2,4-oxadiazol-5-yl)piperidin-4-yl)oxy)-5-methylpyrimidin-4-yl)oxy)benzyl)-1,3,2-dioxathiane 2-oxide]
% reduction in food in take, 2 hour (Sprague Dawley rats; [6]): 39%
% reduction in food in take, 4 hour (Sprague Dawley rats; [7]): 31%
% reduction in food in take, 6 hour (Sprague Dawley rats; [8]): 5%
% reduction in food in take, 24 hour (Sprague Dawley rats; [9]): 9%

SMILES: CCc1cnc(N2CCC(Oc3ncnc(Oc4ccc(C[C@H]5CO[S@@](=O)OC5)cc4)c3C)CC2)nc1 [Example 31, cis-5-(4-((6-((1-(5-ethylpyrimidin-2-yl)piperidin-4-yl)oxy)-5-methylpyrimidin-4-yl)oxy)benzyl)-1,3,2-dioxathiane 2-oxide]
% reduction in food in take, 2 hour (Sprague Dawley rats; [6]): 28%
% reduction in food in take, 4 hour (Sprague Dawley rats; [7]): 34%
% reduction in food in take, 6 hour (Sprague Dawley rats; [8]): 28%
% reduction in food in take, 24 hour (Sprague Dawley rats; [9]): 9%

pEC50 [1]: 7.03
SMILES: CCOC(=O)N1CCC(Oc2ncnc(Oc3ccc(C[C@H]4CO[S@@](=O)OC4)cc3)c2C)CC1 [Example 39, cis-ethyl 4-((5-methyl-6-(4-((2-oxido-1,3,2-dioxathian-5-yl)methyl)phenoxy)pyrimidin-4-yl)oxy)piperidine-1-carboxylate]

SMILES: Cc1c(Oc2ccc([C@H]3CO[S@@](=O)OC3)cc2)ncnc1OC1CCN(C(=O)Nc2ccc(Cl)cc2Cl)CC1 [Example 45, cis-N-(2,4-dichlorophenyl)-4-((5-methyl-6-(4-(2-oxido-1,3,2-dioxathian-5-yl)phenoxy)pyrimidin-4-yl)oxy)piperidine-1-carboxamide]
% reduction in food in take, 2 hour (Sprague Dawley rats; oral, 50 mg/kg, 2 hour): 28%
% reduction in food in take, 4 hour (Sprague Dawley rats; oral, 50 mg/kg, 4 hour): 28%
% reduction in food in take, 6 hour (Sprague Dawley rats; oral, 50 mg/kg, 6 hour): 16%
% reduction in food in take, 24 hour (Sprague Dawley rats; oral, 50 mg/kg, 24 hour): 7%

SMILES: Cc1c(Oc2ccc([C@H]3CO[S@@](=O)OC3)cc2)ncnc1OC1CCN(C(=O)OC(C)C)CC1 [Example 47, cis-isopropyl 4-((5-methyl-6-(4-(2-oxido-1,3,2-dioxathian-5-yl)phenoxy)pyrimidin-4-yl)oxy)piperidine-1-carboxylate]
% reduction in food in take, 2 hour (Sprague Dawley rats; oral, 50 mg/kg, 2 hour): 23%
% reduction in food in take, 4 hour (Sprague Dawley rats; oral, 50 mg/kg, 4 hour): 16%
% reduction in food in take, 6 hour (Sprague Dawley rats; oral, 50 mg/kg, 6 hour): 3%
% reduction in food in take, 24 hour (Sprague Dawley rats; oral, 50 mg/kg, 24 hour): 3%

SMILES: Cc1c(Oc2ccc(C3COS(=O)OC3)cc2)ncnc1OC1CCN(C(=O)OC(C)C)CC1 (stereo not drawn) [Example 48, trans-isopropyl 4-((5-methyl-6-(4-(2-oxido-1,3,2-dioxathian-5-yl)phenoxy)pyrimidin-4-yl)oxy)piperidine-1-carboxylate]
% reduction in food in take, 2 hour (Sprague Dawley rats; oral, 50 mg/kg, 2 hour): 32%
% reduction in food in take, 4 hour (Sprague Dawley rats; oral, 50 mg/kg, 4 hour): 17%
% reduction in food in take, 6 hour (Sprague Dawley rats; oral, 50 mg/kg, 6 hour): 17%
% reduction in food in take, 24 hour (Sprague Dawley rats; oral, 50 mg/kg, 24 hour): 10%

SMILES: CC(C)(C)OC(=O)N1CCC(c2nc(COc3ccc(CC4COS(=O)OC4)cc3)cs2)CC1 (stereo not drawn) [Example 55, cis-tert-butyl 4-(4-((4-((2-oxido-1,3,2-dioxathian-5-yl)methyl)phenoxy)methyl)thiazol-2-yl)piperidine-1-carboxylate]
% reduction in food in take, 2 hour (Sprague Dawley rats; oral, 50 mg/kg, 2 hour): 33%
% reduction in food in take, 4 hour (Sprague Dawley rats; oral, 50 mg/kg, 4 hour): 5.3%

SMILES: CCc1cnc(N2CCC(Oc3ccc(C[C@H]4CO[S@@](=O)OC4)cc3)CC2)nc1 [Example 59, cis-5-(4-((1-(5-ethylpyrimidin-2-yl)piperidin-4-yl)oxy)benzyl)-1,3,2-dioxathiane 2-oxide]
% reduction in food in take, 2 hour (Sprague Dawley rats; oral, 50 mg/kg, 2 hour): 23%
% reduction in food in take, 4 hour (Sprague Dawley rats; oral, 50 mg/kg, 4 hour): 21%
% reduction in food in take, 6 hour (Sprague Dawley rats; oral, 50 mg/kg, 6 hour): 15%
% reduction in food in take, 24 hour (Sprague Dawley rats; oral, 50 mg/kg, 24 hour): 11%

SMILES: CCc1cnc(N2CCC(Oc3ccc(C[C@H]4CO[S@](=O)OC4)cc3)CC2)nc1 [Example 60, trans-5-(4-((1-(5-ethylpyrimidin-2-yl)piperidin-4-yl)oxy)benzyl)-1,3,2-dioxathiane 2-oxide]
% reduction in food in take, 2 hour (Sprague Dawley rats; oral, 50 mg/kg, 2 hour): 39%
% reduction in food in take, 4 hour (Sprague Dawley rats; oral, 50 mg/kg, 4 hour): 31%
% reduction in food in take, 6 hour (Sprague Dawley rats; oral, 50 mg/kg, 6 hour): 24%
% reduction in food in take, 24 hour (Sprague Dawley rats; oral, 50 mg/kg, 24 hour): 5.3%

SMILES: Cc1c(Oc2ccc(C[C@H]3CO[S@@](=O)OC3)cc2Cl)ncnc1OC1CCN(C(=O)OC(C)(C)C)CC1 [Example 63, cis-tert-butyl 4-((6-(2-chloro-4-((2-oxido-1,3,2-dioxathian-5-yl)methyl)phenoxy)-5-methylpyrimidin-4-yl)oxy)piperidine-1-carboxylate]
% reduction in AUC at 50 mg/kg (C57/BL6 mice): 31%
% reduction in food in take, 2 hour (Sprague Dawley rats; oral, 50 mg/kg, 2 hour): 44%
% reduction in food in take, 4 hour (Sprague Dawley rats; oral, 50 mg/kg, 4 hour): 41%
% reduction in food in take, 6 hour (Sprague Dawley rats; oral, 50 mg/kg, 6 hour): 25%
% reduction in food in take, 24 hour (Sprague Dawley rats; oral, 50 mg/kg, 24 hour): 15%

Source: US8772302B2, “GPR 119 agonists” (Cadila Healthcare Limited, priority 2009, dated 2014)
